In patent US8013008B2, “Cyclic amine compound” (Takeda Pharmaceutical Company Limited, priority 2006, dated 2011):

Key:
[1] = target: T1, wild-type androgen receptor (AR) (Homo sapiens, UniProt P10275); assay: AR binding inhibitory test (wild-type); details: 100 nM compound; 3 nM radiolabeled mibolerone; 4° C., 3 hr; dextran/charcoal B/F separation; read-out: Inhibitory rate (%) at 100 nM
T1 sequence (P10275 1-920): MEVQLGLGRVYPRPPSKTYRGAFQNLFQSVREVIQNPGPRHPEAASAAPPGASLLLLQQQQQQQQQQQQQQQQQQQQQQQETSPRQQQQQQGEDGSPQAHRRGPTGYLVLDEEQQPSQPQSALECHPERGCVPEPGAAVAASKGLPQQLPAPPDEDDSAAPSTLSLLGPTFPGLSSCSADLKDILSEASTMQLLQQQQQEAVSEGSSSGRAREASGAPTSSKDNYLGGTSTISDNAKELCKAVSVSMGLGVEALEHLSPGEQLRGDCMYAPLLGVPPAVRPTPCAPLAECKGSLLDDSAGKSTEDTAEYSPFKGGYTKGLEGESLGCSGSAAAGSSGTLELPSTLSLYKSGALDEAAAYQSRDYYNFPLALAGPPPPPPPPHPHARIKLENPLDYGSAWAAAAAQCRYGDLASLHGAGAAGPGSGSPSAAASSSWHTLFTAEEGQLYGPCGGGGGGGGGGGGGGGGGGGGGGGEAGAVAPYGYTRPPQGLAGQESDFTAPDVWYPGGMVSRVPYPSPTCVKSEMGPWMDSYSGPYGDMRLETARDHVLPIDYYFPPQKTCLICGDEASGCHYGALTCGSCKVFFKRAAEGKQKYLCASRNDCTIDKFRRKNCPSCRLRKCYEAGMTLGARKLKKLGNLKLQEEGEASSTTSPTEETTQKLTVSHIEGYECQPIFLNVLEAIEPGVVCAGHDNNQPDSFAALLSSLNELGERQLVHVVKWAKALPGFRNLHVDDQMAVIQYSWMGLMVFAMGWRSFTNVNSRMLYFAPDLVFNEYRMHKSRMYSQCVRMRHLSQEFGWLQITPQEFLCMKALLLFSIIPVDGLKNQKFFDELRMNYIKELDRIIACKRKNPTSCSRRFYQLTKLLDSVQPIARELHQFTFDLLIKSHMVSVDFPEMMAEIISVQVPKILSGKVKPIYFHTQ
Procedure: To a solution containing a wild-type androgen receptor (AR) was added 3 nM radiolabeled mibolerone and 100 nM compound. After the solution was incubated at 4° C. for 3 hr, B (Bound)/F (Free) separation was performed by the dextran/charcoal method. The label count of B was measured, and the inhibitory rate of the compound was calculated.

[2] = target: T2, AR (Homo sapiens, UniProt P10275); assay: Reporter assay system using Cos7 cell (AR gene + MMTV androgen responsive promoter-luciferase); format: cell-based; details: 100 nM compound, 24 hr; Cos-7 co-transfected with AR and MMTV-luciferase vectors; luciferase activity induced by 1 μM 5α-dihydrotestosterone taken as 100
T2 construct: expressed in transfected cells; host or cells: Cos-7
T2 sequence (P10275 1-920): T1 sequence (P10275 1-920)
Procedure: Cos-7(5,000,000 cells) were sown in a flask (150 cm^2), and cultured in a culture medium (DMEM medium containing 10% Dextran Charcoal (DCC)-Fetal Bovine Serum (FBS) and 2 mM glutamine) for 24 hr. A vector DNA containing AR gene, and a vector DNA prepared by binging luciferase gene at the downstream of an androgen responsive promoter derived from MMTV (Mouse Mammary Tumor Virus) were co-transfected by the liposome method. After culture for 4 hr, the cells were harvested, 10,000 cells were plated on a 96 well plate and cultured for 2 hr, after which 1 μM of 5α-dihydrotestosterone or 100 nM of a compound was added thereto. After culture for 24 hr, luciferase activity was determined. The induction rate by the compound was determined with the luciferase activity induced by addition of 1 μM of 5α-dihydrotestosterone as 100.

SMILES	inhibition at 0.1 µM [1] [%]	Induction rate (%) at 100 nM [2] [%]
C[C@@H]1N(c2ccc(C#N)c(Cl)c2)CC[C@@]1(O)C(F)(F)F [Example 18, 2-chloro-4-[(2S,3S)-3-hydroxy-2-methyl-3-(trifluoromethyl)pyrrolidin-1-yl]benzonitrile]	100	89
C[C@@H]1C[C@](C)(O)[C@H](C)N1c1ccc(C#N)c(Cl)c1 [Example 60, 2-chloro-4-[(2S,3S,5R)-3-hydroxy-2,3,5-trimethylpyrrolidin-1-yl]benzonitrile]	92	37
CC[C@]1(O)CCN(c2cc(F)c(C#N)c(F)c2)[C@H]1C [Example 7, 4-[(2S,3S)-3-ethyl-3-hydroxy-2-methylpyrrolidin-1-yl]-2,6-difluorobenzonitrile]	98	107
C[C@@H]1N(c2ccc(C#N)c(F)c2)CC[C@@]1(O)C1CC1 [Example 32, 4-[(2S,3R)-3-cyclopropyl-3-hydroxy-2-methylpyrrolidin-1-yl]-2-fluorobenzonitrile]	98	77
C[C@@H]1N(c2ccc(C#N)c(F)c2)CC[C@]1(C)O [Example 1, 2-fluoro-4-[(2S,3S)-3-hydroxy-2,3-dimethylpyrrolidin-1-yl]benzonitrile]	95	65
CC(C)[C@@H]1N(c2cc(F)c(C#N)c(F)c2)CC[C@]1(C)O [Example 20, 2,6-difluoro-4-[(2S,3S)-3-hydroxy-2-isopropyl-3-methylpyrrolidin-1-yl]benzonitrile]	98	59
